These results are taken from patent US20240173389A1, “Compositions and Methods For Reducing Immune Intolerance” (LAPIX THERAPEUTICS, INC., priority 2021, published 2024).

For assay [1], the system named is TLR2. Nature of the assay: TNF-α production by splenocytes in response to TLR2 ligand PGN. Conditions: 48 hours, OPLT 1.85 μg/ml, dexamethasone 100 μg/ml, rapamycin 625 μg/ml. Type of assay: cell-based, C57BL/6 mice. The procedure: (§1) OPLT was dissolved in sterile PBS at 100 μM, and pH was adjusted to approximately 7.5. Splenocytes from naïve C57BL/6 mice were stained with CFSE, prepared, cultured, and dosed. Cells were seeded at 2×10^5 cells/well.
(§2) To evaluate the effects of OPLT on cytokine production by splenocytes in response to different TLR ligands, splenocytes were incubated with one of the following TLR ligands in triplicate: PGN, LPS, ODN CPG, dsRNA, or ssRNA, as per group assignment. Cells were then treated as follows: • Control: No treatment; • OPLT: Cells were dosed with 1.85 μg/ml; • Dexamethasone: Cells were dosed with 100 μg/ml; • Rapamycin: Cells were dosed with 625 μg/ml. Cells were incubated for 48 hours before collecting the supernatant for TNF-α analysis.
(§3) The supernatant was collected for TNF-α analysis by ELISA.

Assay [2] deals with TLR7. Description: TNF-α production by splenocytes in response to TLR7 ligand ssPolyU. Type of assay: cell-based, C57BL/6 mice. Conditions: 48 hours, OPLT 1.85 μg/ml, dexamethasone 100 μg/ml, rapamycin 625 μg/ml. The procedure:
as §1, §2, §3

Assay [3] relates to TLR3. Description: TNF-α production by splenocytes in response to TLR3 ligand poly(I:C). Type of assay: cell-based, C57BL/6 mice. Particulars: 48 hours, OPLT 1.85 μg/ml, dexamethasone 100 μg/ml, rapamycin 625 μg/ml. The procedure:
as §1, §2, §3

Assay [4] concerns TLR4. Description: TNF-α production by splenocytes in response to TLR4 ligand LPS. Type of assay: cell-based, C57BL/6 mice. Particulars: 48 hours, OPLT 1.85 μg/ml, dexamethasone 100 μg/ml, rapamycin 625 μg/ml. How it is done:
as §1, §2, §3

The test system of assay [5] is TLR9. Nature of the assay: TNF-α production by splenocytes in response to TLR9 ligand ODN CpG. Conditions: 48 hours, OPLT 1.85 μg/ml, dexamethasone 100 μg/ml, rapamycin 625 μg/ml. The assay is classed as cell-based, C57BL/6 mice. The procedure:
as §1, §2, §3

The test system of assay [6] is RAW264.7 mouse monocyte macrophage cells. Description: SAR screen in RAW 264.7 cells with FVIII antigen, TNF-α ELISA (Example 5). The assay is classed as cell-based. Conditions: for TNF-α induction: liposomal (DMPC 70:30) or free form dosed 0.001-100 μM. The source says: (§4) RAW264.7 mouse monocyte macrophage cells were exposed to an increasing concentration of selected compounds in the presence of human plasma-derived FVIII as a model antigen protein. TNF-α and TGF-β production were monitored.
All molecules were formulated in RPMI media in aseptic conditions. The pH was adjusted to approximately 7.5 before dosing cells. 1,2-dimyristoyl-sn-glycero-3-phosphocholine (DM PC):PS liposomes were made at 70:30 molar ratio to make “PS” liposomes.
(§5) RAW 264.7 cells were prepared, cultured, and dosed. Cells were seeded at 4×10^5 cells/well. OPLS, OPLT and L-homocysteic acid (LHA) were dosed at 100, 85, 70, 60, 50, 30, 10, 3, 1, 0.3, 0.1, 0.03 and 0.01 mM, or at 100, 85, 70, 60, 50, 30, 10, 3 and 1 mM, as indicated. O-Benzyl-L-serine (OBLS), S-phenyl-L-cysteine (SPLC), S-benzyl-L-cysteine (SBLC) and OBLT were dosed at 100, 85, 70, 60, 50, 30, 10, 3, 1, 0.3, 0.1, 0.03, 0.01, 0.003 and 0.001 μM. Finally, 100 μl of 40 μg/ml of FVIII as a sample antigen was added to each cell. LPS and free protein were used as positive and baseline controls, respectively. TNF-α and TGF-β ELISA were conducted as per the manufacturer's instructions (R & D Systems).
For orientation: In an ELISA, binding on a coated surface is turned into a signal by an enzyme label.

For assay [7] the test system is unchanged. Nature of the assay: SAR screen in RAW 264.7 cells with FVIII antigen, TGF-β ELISA (Example 5). Particulars: free compounds dosed in mM range. The assay is classed as cell-based.
Excerpt: as §4
All molecules were formulated in RPMI media in aseptic conditions. The pH was adjusted to approximately 7.5 before dosing cells. 1,2-dimyristoyl-sn-glycero-3-phosphocholine (DM PC):PS liposomes were made at 70:30 molar ratio to make “PS” liposomes. The remaining liposomes were made by hydrating a DMPC lipid layer in PBS buffer containing a test compound to give a final molar ratio of 70:30 of DMPC:test compound.
as §5

In assay [8] the test system is FoxP3+/CD4+ T-cell. Nature of the assay: Ex vivo flow cytometry of splenocytes for FoxP3+/CD4+ T-cells after FVIII treatment period (Example 1). Type of assay: in vivo, mice. The procedure: (§6) OPLT was dissolved in sterile PBS, and pH was adjusted to approximately 7.5. OPLS, a comparator compound, was dissolved in sterile PBS, and pH was adjusted to approximately 7.5. FVIII in PBS was used as a control. For treatment, FVIII was co-mixed with OPLT, OPLS or diluted in PBS before administration, as per group assignment for each animal. For re-challenge, FVIII was administered alone SC to all animals regardless of group assignment. […] For a head-to-head comparison, 5 mg/injection was selected for OPLT. FVIII was dosed at 1 μg/injection.
One week after the last dose in the treatment period, one animal from each group was selected at random for ex vivo analysis of the T-cell population. Spleens were collected and a single-cell suspension was prepared for cellular phenotyping by flow cytometry. Cells were stained and gated for CD4+ T-cells. FoxP3 expression level was evaluated for each animal.
(In flow cytometry, cells or beads pass a laser one at a time.)

In assay [9] the test system is B57BL6 Mice. Nature of the assay: Anti-FVIII titer analysis in mice given FVIII co-mixed with compound SC QW 4 weeks, then FVIII re-challenge (Example 1). The assay is classed as in vivo. Particulars: end of treatment after one-week washout. The procedure:
as §6
The study was conducted in two parts: a treatment phase and a re-challenge phase. The objective of the treatment phase was to test the ability of OPLT to reduce the immunogenicity of FVIII as an antigen compared to animals administered FVIII or FVIII+OPLS. Animals were injected with FVIII, FVIII+OPLT, or FVIII+OPLS SC QW for 4 weeks. Blood samples were collected for anti-FVIII titer analysis after a one-week washout period from the last dose. The objective of the re-challenge phase of the study was to evaluate the duration of tolerance. Animals that have been successfully tolerized toward FVIII will not mount a robust immune response towards FVIII upon subsequent exposure to FVIII. After the washout period, animals were injected with (1 μg) FVIII SC QW for 2 weeks. Blood samples were collected one week after each FVIII injection for anti-FVIII titer analysis.

Assay [10] concerns Splenocytes. Description: Splenocyte culture with anti-CD3/anti-CD28 without antigen, Foxp3+/CD4+ by flow cytometry (Example 4). Conditions: 100 μM, three days, anti-CD3/anti-CD28, absence of any antigen. The assay is classed as cell-based. The procedure: Splenocytes were cultured for three days in presence of anti-CD3/anti-CD28 in presence of 100 μM PS or 100 μM OPLT in absence of any antigen.

For `C[C@@H]1C[C@H]2[C@@H]3CCC4=CC(=O)C=C[C@]4(C)[C@@]3(F)[C@@H](O)C[C@]2(C)[C@@]1(O)C(=O)CO` [Dexamethasone, dexamethasone], the TNF-α mean in assay [1] (PGN 0 ng/ml) worked out at 0 pg/mL; in assay [1] (PGN 1 ng/ml, CTL 730) it was 0 pg/mL; in [1] (PGN 10 ng/ml, CTL 725) it was 0 pg/mL; in [1] (PGN 100 ng/ml, CTL 834), 0 pg/mL; in [2] (Poly U 0 ng/ml), 0 pg/mL; in assay [2] (Poly U 1 ng/ml, CTL 44), 0 pg/mL. Besides, the TNF-α mean in [2] (Poly U 10 ng/ml, CTL 51) stood at 0 pg/mL; in assay [2] (Poly U 100 ng/ml, CTL 229) it was 41 pg/mL; in assay [3] (PolyI:C 0 ng/ml), 0 pg/mL; in [3] (PolyI:C 1 ng/ml, CTL 0) it was 0 pg/mL; in assay [3] (PolyI:C 10 ng/ml, CTL 109), 0 pg/mL; in assay [3] (PolyI:C 100 ng/ml, CTL 162) it was 0 pg/mL. Further, the TNF-α mean in assay [4] (LPS 0 ng/ml) stood at 0 pg/mL; in [4] (LPS 1 ng/ml, CTL 143), 0 pg/mL; in [4] (LPS 10 ng/ml, CTL 840), 0 pg/mL; in assay [4] (LPS 100 ng/ml, CTL 1091) it was 0 pg/mL; in assay [5] (ODN CpG 0 ng/ml), 0 pg/mL; in [5] (ODN CpG 1 ng/ml, CTL 0), 0 pg/mL. The TNF-α mean was found to be 0 pg/mL in [5] (ODN CpG 10 ng/ml, CTL 338) and 0 pg/mL in [5] (ODN CpG 100 ng/ml, CTL 1220).

As to `N[C@@H](CCS(=O)(=O)O)C(=O)O` [LHA, L-homocysteic acid], the “TNF-α production (suppression) versus OPLS” value in assay [6] (free compounds dosed in mM range, FVIII antigen) is on record as “more potent inhibitors of TNF-α”. The “TGF-β production versus OPLS” value in assay [7] is “more potent inducers of TGF-β”.

On to `N[C@@H](COCc1ccccc1)C(=O)O` [OBLS, O-Benzyl-L-serine], for which, in assay [6] (FVIII antigen), the TNF-α induction result was “failed to induce TNF-α”.

With `N[C@@H](Cc1ccc(OCc2ccccc2)cc1)C(=O)O` [OBLT, O-benzyl-L-tyrosine], the TNF-α induction entry in assay [6] (FVIII antigen) is on record as “failed to induce TNF-α”.

With `N[C@@H](COP(=O)(O)O)C(=O)O` [OPLS, O-phospho-L-serine, reference compound], the “increase in FoxP3+/CD4+ compared to the FVIII alone group” value in [8] (5 mg/injection co-mixed with FVIII 1 μg SC QW 4 weeks, splenocytes of one animal per group one week after last dose) stood at 66%. For the same compound, the “FoxP3+/CD4+ T-cell (flow cytometry of splenocytes)” value in assay [8] (5 mg/injection co-mixed with FVIII SC QW 4 weeks, one animal per group, FVIII alone 2.94) is reported as 4.89. The “anti-FVIII titers versus FVIII control group” value in [9] is on record as “statistically lower than the FVIII control group”. For the same compound, the “animals that developed anti-FVIII antibodies” value in assay [9] (5 mg/injection + FVIII SC QW 4 weeks, FVIII control 8/8) was 5/8.

For `CO[C@H]1C[C@@H]2CC[C@@H](C)[C@@](O)(O2)C(=O)C(=O)N2CCCC[C@H]2C(=O)O[C@H]([C@H](C)C[C@@H]2CC[C@@H](O)[C@H](OC)C2)CC(=O)[C@H](C)/C=C(\C)[C@@H](O)[C@@H](OC)C(=O)[C@H](C)C[C@H](C)/C=C/C=C/C=C/1C` [Rapamycin, rapamycin], the TNF-α mean is 0 pg/mL in [1] (PGN 0 ng/ml); 0 pg/mL in [1] (PGN 1 ng/ml, CTL 730); 0 pg/mL in assay [1] (PGN 10 ng/ml, CTL 725); 0 pg/mL in assay [1] (PGN 100 ng/ml, CTL 834); 0 pg/mL in assay [2] (Poly U 0 ng/ml); 0 pg/mL in assay [2] (Poly U 1 ng/ml, CTL 44). Further, the TNF-α mean in assay [2] (Poly U 10 ng/ml, CTL 51) turned out to be 29 pg/mL; in [2] (Poly U 100 ng/ml, CTL 229), 14 pg/mL; in assay [3] (PolyI:C 0 ng/ml), 0 pg/mL; in assay [3] (PolyI:C 1 ng/ml, CTL 0) it was 0 pg/mL; in assay [3] (PolyI:C 10 ng/ml, CTL 109) it was 0 pg/mL; in assay [3] (PolyI:C 100 ng/ml, CTL 162), 0 pg/mL. For the same compound, the TNF-α mean was 0 pg/mL in [4] (LPS 0 ng/ml); 0 pg/mL in assay [4] (LPS 1 ng/ml, CTL 143); 0 pg/mL in assay [4] (LPS 10 ng/ml, CTL 840); 0 pg/mL in [4] (LPS 100 ng/ml, CTL 1091); 0 pg/mL in [5] (ODN CpG 0 ng/ml); 0 pg/mL in assay [5] (ODN CpG 1 ng/ml, CTL 0). Also, the TNF-α mean in assay [5] (ODN CpG 10 ng/ml, CTL 338) was found to be 0 pg/mL; in assay [5] (ODN CpG 100 ng/ml, CTL 1220), 0 pg/mL.

For the compound `N[C@@H](CSCc1ccccc1)C(=O)O` [SBLC, S-benzyl-L-cysteine], the TNF-α induction entry in assay [6] (FVIII antigen) is given as “failed to induce TNF-α”.

In the case of `N[C@@H](CSc1ccccc1)C(=O)O` [SPLC, S-phenyl-L-cysteine], the TNF-α induction result in assay [6] (FVIII antigen) is “failed to induce TNF-α”.

As to “phosphatidyl serine [PS, reference compound]”, the “increase in Foxp3+/CD4+ compared to control” value in assay [10] came to 76%. Further, in assay [6] (OPLS versus PS), the “fold difference between the ability of OPLS and PS to induce TNF-α” value is 1,000 fold.
